From PMC6587507, “Comparison of the metabolism of 10 chemicals in human and pig skin explants” (Journal of Applied Toxicology, 2018)
Where two headings read alike, the source gives them in different places.

What was measured:
pig ear skin explants [1] = assay: Cutaneous distribution and mass balance of radioactivity in pig skin explants; settings: pig skin; for % Radioactivity in culture media after 24 h / Mass balance (% of applied dose at end of incubation): 2.4 nmol/cm^2; for Mass balance (% of applied dose at end of incubation): 48 h; for Medium radioactivity / Skin radioactivity / Skin surface radioactivity: end of incubation (48 h), mean ± SD
Method: (§1) Human abdominal skin was obtained (with consent for research from a commercial supplier [L’Union Clinic, Rangueil hospital and Icelltis, Toulouse, France] with certified ethical procedures) from six male and 34 female healthy donors, 41 ± 11 years of age, undergoing cosmetic surgery. Abdominal skin was kept at 4°C during transports and placed in culture within 3 hours of surgery. Pig ear skin was a waste product of the meat industry (without hot steam treatment) from domestic pigs (female Pietrain breed, 6 months old, 80‐100 kg) obtained from a local slaughterhouse (Montauban, France). Ears were taken from the animals within 5 minutes of slaughter and were kept at 4°C during transport to the laboratory, which lasted a maximum of 2 hours. Pig skin samples were dried and then gently shaved.
(§2) The experiment and the preparation of the culture medium were performed under sterile conditions. Human and pig skin was cut with a dermatome to a thickness of 450 ± 50 μm. Skin punches were seeded dermal side down in polycarbonate Transwell® inserts from Corning Life Sciences (Avon, France; 4.16 cm^2 application area with an 8 μm pore size filter). […] The inserts were placed in a six‐well plate containing 1.5 mL culture medium and the skin explants incubated in a standard incubator at 37°C, under an atmosphere of 5% CO2 and 50 ± 10% relative humidity. The culture medium was Dulbecco's modified Eagle medium without phenol red supplemented with 8 mM L‐glutamine, 2 μg/mL streptomycin/penicillin, 25 ng/mL fungizone and 50 ng/mL gentamycin. Skin explants were incubated for 1 hour before application of the formulation.
(§3) The dosing volume was 10 μL/cm^2. For pig skin metabolism studies, which were carried out before the human skin experiments to ensure the analytics were optimal, 2.4 nmol/cm^2 of each chemical (only the ^14C‐labeled form) was applied on the skin and incubated for 24 hours for the measurement of metabolites in the medium. These tissues were further incubated for a total of 48 hours, with a replacement of the culture medium after 24 hours. This longer incubation time and the standard doses of 2.4 nmol/cm^2 were used to maximize the likelihood of the skin forming metabolites to develop analytical methods. The metabolites profiles in pig and human skin were compared in the medium sample at 24 hours of incubation. The metabolite profiles for the 48‐hour timepoint are not reported here since humans skin metabolism was measured at 24 hours only; however, for completeness, the distribution of radioactivity at the end of both pig (48 hours) and human (24 hours) skin incubations is reported. […] The doses were obtained by mixing radiolabeled and cold chemical. One replicate disc per donor and per dose was used. All chemicals were tested on four donors of pig and human skin, except for 2‐AAF and 4‐amino‐3‐nitrophenol (4‐A‐3‐NP), for which three donors were used. The medium was removed after 24 hours of incubation and stored at −20°C for analysis.
(§4) At the end of the experiment, the trans‐wells were dismantled and washed with appropriate solvent for each chemical. […] The cotton swabs were placed in 5 mL of appropriate solvent in a scintillation counting flask and placed in a sonicator bath for 20 minutes. Aliquots of 1 mL were counted by liquid scintillation, after addition of 15 mL of scintillation liquid. Tissue culture inserts were washed with 10 mL of appropriate solvent. One aliquot of 1 mL was counted by liquid scintillation, after addition of 15 mL of scintillation liquid. After media removal, wells were washed twice with 1 mL of the appropriate solvent. Washing solutions were counted by liquid scintillation, after addition of 15 mL of scintillation liquid.
(§5) Pig skin explants were digested using 3 mL Soluable (60°C for 24 hours) and counted by liquid scintillation. Skin extraction process was adapted according to the physicochemical properties of each chemical and its potential metabolites.

[2] = system: human abdominal skin explants; assay: Cutaneous distribution and mass balance of radioactivity in human skin explants; settings: human skin; for % Radioactivity in culture media after 24 h / Mass balance (% of applied dose at end of incubation): 24 h; for Medium radioactivity / Skin radioactivity / Skin surface radioactivity: end of incubation (24 h), mean ± SD
Method: as §1, §2, §3, §4, §5

[3] = system: human abdominal skin explants
Method: as §1, §2, §3
(§6) After centrifugation, a 100 μL aliquot of the extract was counted by liquid scintillation. The pellet was dissolved in 3 mL Soluable (60°C, 24 hours) and then counted by liquid scintillation.
(§7) Analysis of the chemicals and their metabolites in medium after 24 hours of incubation with pig and human skin was measured by radio‐high‐performance liquid chromatography (HPLC) using an HPLC 1100 Series, Agilent and a Flow Scintillation Analyzer, Radiomatic 610 TR, Perkin Elmer (Villebon‐sur‐Yvette, France). […] To confirm that metabolites were the same in pig and human skin, medium samples were co‐injected on the new column. The metabolites were identified by LC‐electrospray ionization‐HRMS (HPLC‐ESI‐HRMS) with a RSLC3000 HPLC system coupled to a LTQ‐Orbitrap XL mass spectrometer (Thermo Scientific). The HPLC analytical conditions for identification and quantification of the metabolites for each chemical are summarized in Supporting information Table S1.

pig ear skin explants [4] = settings: for Parent compound in the medium after 24 h / Metabolites detected in the skin or culture media / Number of metabolites detected in the culture medium: pig skin; for Parent compound in the medium after 24 h: mean ± SEM; for Parent compound in the medium after 24 h / Number of metabolites detected in the culture medium: 24 h
Method: as §1, §2, §3, §6, §7

[5] = system: N‐acetyltransferase (NAT)1 enzyme; design: method as in unpublished data; settings: ref unpublished data; cited from earlier work
[6] = ref Chemspider (www.chemspider.com), cited from earlier work
skin explants = assay: Skin explant assay, radioactivity in culture medium bound to proteins; assay type: in vitro ADME; settings: medium with 4% BSA; species not stated

% Radioactivity in culture media after 24 h (pig ear skin explants [1]) [%] | Mass balance (% of applied dose at end of incubation) (pig ear skin explants [1]) | Medium radioactivity (pig ear skin explants [1]) | Skin radioactivity (pig ear skin explants [1]) | Skin surface radioactivity (pig ear skin explants [1]) | % Radioactivity in culture media after 24 h [2] [%] | Mass balance (% of applied dose at end of incubation) [2] | Medium radioactivity [2] | Skin radioactivity [2] | Skin surface radioactivity [2] | Parent compound in the medium after 24 h ([3]; human skin, 24 h, mean ± SEM) [% Applied dose] | Parent compound in the medium after 24 h (pig ear skin explants [4]) [% Applied dose] | Compound | LogP [6] | Maximum water solubility [6] [µg/mL] | other results
51.9 ± 6.7 | 96.0 ± 2.6 % of applied dose | 69.9 ± 5.8 % of the applied dose | 15.6 ± 5.3 % of the applied dose | 10.5 ± 5.1 % of the applied dose | 62.3 ± 3.4 | 94.4 ± 3.0 % of applied dose | 62.3 ± 3.4 % of the applied dose | 28.6 ± 4.5 % of the applied dose | 3.6 ± 2.1 % of the applied dose | 0.1 ± 0.06 | 0.6 ± 0.2 | Nc1ccc(O)cc1[N+](=O)[O-] [4‐A‐3‐NP, 4‐amino‐3‐nitrophenol] | 0.41 | 2000 | N‐acetylated metabolite ([3]; human skin incubations): not detected; N‐acetylated metabolite (pig ear skin explants [4]; pig skin incubations): not detected; Substrate for NAT1 [5]: not a substrate
62.5 ± 2.7 | 100.0 ± 3.8 % of applied dose | 89.7 ± 3.4 % of the applied dose | 9.3 ± 0.4 % of the applied dose | 1.0 ± 0.1 % of the applied dose |  | 91.9 ± 3.8 % of applied dose | 66.7 ± 3.5 % of the applied dose | 24.1 ± 6.2 % of the applied dose | 1.4 ± 0.2 % of the applied dose | 57.7 ± 3.1 | 60.8 ± 0.6 | CCOc1ccc2ccc(=O)oc2c1 [7‐EC, 7‐ethoxycoumarin] | 2.30 | 780 | Number of metabolites detected in the culture medium ([3]; human skin, 24 h): three; Number of metabolites detected in the culture medium (pig ear skin explants [4]): three
63.2 ± 1.9 | 96.8 ± 1.9 % of applied dose | 87.1 ± 2.7 % of the applied dose | 8.5 ± 0.8 % of the applied dose | 1.2 ± 1.1 % of the applied dose | 83.5 ± 4.8 | 99.9 ± 5.8 % of applied dose | 83.5 ± 4.8 % of the applied dose | 16.2 ± 3.2 % of the applied dose | 0.2 ± 0.1 % of the applied dose | 0.2 ± 0.03 | 0.0 | OCC=Cc1ccccc1 [Cinnamyl alcohol] | 1.95 | 4000 | Number of metabolites detected in the culture medium ([3]; human skin, 24 h): eight
58.6 ± 7.6 | 92.7 ± 5.92 % of applied dose | 71.0 ± 7.1 % of the applied dose |  |  |  | 94.2 ± 3.5 % of applied dose | 54.4 ± 1.5 % of the applied dose |  |  |  | 1.8 ± 0.8 | Oc1cccc(O)c1 [Resorcinol] | 0.80 |  | Glucuronide conjugate as share of the total metabolites observed ([3]; both, human, 24 h): > 78 % of the total metabolites; Parent compound in the medium after 24 h ([3]; both, human, 24 h): 4.8 ± 0.7 % Applied dose; Sulfate conjugate as share of the total metabolites ([3]; both, human, 24 h): 19 % of the total metabolites; Total metabolites in the medium after 24 h ([3]; both, human, 24 h): 41.9 ± 0.6 % Applied dose
58.6 ± 5.2 | 90.7 ± 1.7 % of applied dose | 77.4 ± 5.1 % of the applied dose |  |  | 60.0 ± 7.8 | 104.4 ± 6.0 % of applied dose | 60.0 ± 7.8 % of the applied dose |  |  |  | 0.1 ± 0.04 | COc1cc(C=O)ccc1O [Vanillin] |  | 8500 | Parent compound in the medium after 24 h ([3]; both, human, 24 h): 0.3 ± 0.09 % Applied dose; Total metabolites in the medium after 24 h ([3]; both, human, 24 h): 51.1 ± 2.3 % Applied dose; Number of metabolites detected in the culture medium (pig ear skin explants [4]): Six

Compound | % Radioactivity in culture media after 24 h (pig ear skin explants [1]) [%] | Mass balance (% of applied dose at end of incubation) (pig ear skin explants [1]) | Medium radioactivity (pig ear skin explants [1]) | Skin radioactivity (pig ear skin explants [1]) | Skin surface radioactivity (pig ear skin explants [1]) | % Radioactivity in culture media after 24 h [2] [%] | Mass balance (% of applied dose at end of incubation) [2] | Medium radioactivity [2] | Skin radioactivity [2] | Skin surface radioactivity [2] | Parent compound in the medium after 24 h ([3]; human skin, 24 h, mean ± SEM) [% Applied dose] | Parent compound in the medium after 24 h (pig ear skin explants [4]) [% Applied dose] | LogP [6] | Maximum water solubility [6] [µg/mL] | other results
Nc1ccc(Cl)cc1 [4‐Chloroaniline] | 54.3 ± 0.6 | 99.2 ± 10.8 % of applied dose |  |  | 0.7 ± 0.2 % of the applied dose | 49.7 ± 4.4 | 86.2 ± 0.7 % of applied dose |  |  | 2.2 ± 0.5 % of the applied dose |  |  |  | 3200 | Medium radioactivity (pig ear skin explants [1]; listed as 4-Chloroaniline): 82.1 ± 8.8 % of the applied dose; Skin radioactivity (pig ear skin explants [1]; listed as 4-Chloroaniline): 16.3 ± 2.3 % of the applied dose; Medium radioactivity (pig ear skin explants [1]; listed as 4‐chloroaniline): 82 % of the applied dose; Skin radioactivity (pig ear skin explants [1]; listed as 4‐chloroaniline): 16 % of the applied dose; Medium radioactivity ([2]; listed as 4-Chloroaniline): 49.7 ± 4.4 % of the applied dose; Skin radioactivity ([2]; listed as 4-Chloroaniline): 34.4 ± 3.8 % of the applied dose; Medium radioactivity ([2]; listed as 4‐chloroaniline): 50 % of the applied dose; Skin radioactivity ([2]; listed as 4‐chloroaniline): 35 % of the applied dose; Metabolites detected in the skin or culture media ([3]; human skin): no metabolites were detected; Metabolites detected in the skin or culture media (pig ear skin explants [4]): no metabolites were detected; Radioactivity detected in the culture medium bound to proteins (skin explants): ~ 20%
Cn1c(N)nc2c3cccnc3ccc21 [IQ, 2‐amino‐3‐methylimidazo[4,5‐f]quinoline] | 30.1 ± 2.3 | 96.3 ± 6.6 % of applied dose | 54.8 ± 8.3 % of the applied dose | 33.6 ± 5.1 % of the applied dose | 7.8 ± 3.9 % of the applied dose | 10.5 ± 13.4 | 94.5 ± 10.6 % of applied dose | 10.5 ± 13.4 % of the applied dose | 66.0 ± 12.3 % of the applied dose | 17.9 ± 3.7 % of the applied dose |  |  | 1.47 | 530 | Metabolites detected in the skin or culture media ([3]; human skin): no metabolites were detected; Metabolites detected in the skin or culture media (pig ear skin explants [4]): no metabolites were detected
